Laboratory results as given in US4895937A, “5-ioso-2-pyrimidinone nucleoside” (The Research Foundation of State University of New York, priority 1988, dated 1990).

Assays:
[1] = tested on: HSV-1; test: Viral inhibition, HSV-1 (Example 7, method of Example 5); type: cell-based, herpes simplex type 1; details: Human alphaherpesvirus 1
Protocol: (§1) In accordance with the present invention, 1-(2-Deoxy-β-D-ribofuranosyl)-5-(methylmercapto)-2-pyrimidinone is prepared essentially in accordance with the procedure set forth in "Snythesis and Antiviral Activity of 1-(2-Deoxy-β-D-ribofuranosyl)-5-(methylmercapto)-2-pyrimidinone" by Schroeder and Bardos and Cheng, Volume 24, page 109, January 1981. HeLa cells were infected in 1640 RPMI medium with herpes simplex type 1 (HSV-1) and independently with herpes simplex type 2 (HSV-2) virus at a multiplicity of 5 to 10 plaque forming units per cell. The composition of 1640 RPMI medium is reported in "Biological Activity of 5 Ethyl, 5 Propyl, and 5 Vinyl 2'-Deoxyuridine" by Cheng et al published in Antimicrobial Agents and Chemotherapy, Volume 10, beginning at page 119 (1976). 1640 RPMI medium is commercially available from Gibco Company, Grand Island, N.Y. After 1 hour, virus absorption, the drugs were added. Resulting cultures were analyzed for virus titer at 24 hours post infection a described in the procedure set forth in "Biological Activity of 5-Ethyl, 5-Propyl and 5-Vinyl 2'-uridine" by Cheng et al. The results are set forth in Table 2. The numbers set forth in Table 2 show the number of plaque forming units in the control which contained no methylmercapto compound and the number of units at concentrations of 100, 200 and 400 micromoles of the methylmercapto compound. The results clearly indicate substantial decrease in the number of plaque forming units in the presence of 1-(2-Deoxy-β-D-ribofuranosyl)-5-(methylmercapto)-2-pyrimidinone.
(§2) The above described methyl compound was tested for viral inhibition substantially in accordance with the method of Example 5 except that the concentrations were 50 and 100 micromolar.

[2] = biological target: thymidine kinase extracted from Varicella zoster virus infected cells (Human herpesvirus 3 strain Dumas, UniProt P09250); test: Binding affinity with thymidine kinase from Varicella zoster virus infected cells (Example 6)
Sequence of thymidine kinase extracted from Varicella zoster virus infected cells (P09250 whole entry, looked up): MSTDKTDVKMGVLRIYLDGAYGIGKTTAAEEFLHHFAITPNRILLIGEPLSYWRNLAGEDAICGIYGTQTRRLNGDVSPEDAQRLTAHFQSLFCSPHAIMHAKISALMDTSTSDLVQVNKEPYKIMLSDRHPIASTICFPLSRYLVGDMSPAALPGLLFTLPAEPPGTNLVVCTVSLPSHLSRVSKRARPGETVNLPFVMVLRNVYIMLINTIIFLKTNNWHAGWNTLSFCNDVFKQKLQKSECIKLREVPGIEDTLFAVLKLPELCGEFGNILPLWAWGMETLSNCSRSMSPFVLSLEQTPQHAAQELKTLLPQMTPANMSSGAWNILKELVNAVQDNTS
Protocol: (§3) The methylmercapto composition, as described in Example 5. was tested for binding affinity with thymidine kinase from various sources. Viruses which induce the production of thymidine kinase, induce thymidine kinase specific to the virus. […] It is believed that the compound of the invention, in order to become active in inhibiting the replication of the virus, must become phosphorylated. For such phosphorylation to occur, the thymidine kinase must first bind to the compound. Since binding with thymidine kinase produced by the virus is much more efficient and effective than binding with thymidine kinase from other sources, phosphorylation of the compound occurs more rapidly in the presence of active viruses producing thymidine kinase. The compound, activated by phosphorylation, then is able to interfere with replication of the virus.

[3] = tested on: HSV-1(Kos); test: Virus titer in HSV-1 infected HeLa cells, 24 hours post infection (Example 5); type: cell-based, herpes simplex type 1; details: control 1.5 × 10^7
Protocol: as §1

[4] = biological target: thymidine kinase extracted from cells infected with herpes simplex 1 virus (Human alphaherpesvirus 1 strain 17, UniProt P0DTH5); test: Binding affinity with thymidine kinase extracted from cells infected with herpes simplex 1 virus (Example 6); details: herpes simplex 1 virus infected cells
Sequence of thymidine kinase extracted from cells infected with herpes simplex 1 virus (P0DTH5 whole entry): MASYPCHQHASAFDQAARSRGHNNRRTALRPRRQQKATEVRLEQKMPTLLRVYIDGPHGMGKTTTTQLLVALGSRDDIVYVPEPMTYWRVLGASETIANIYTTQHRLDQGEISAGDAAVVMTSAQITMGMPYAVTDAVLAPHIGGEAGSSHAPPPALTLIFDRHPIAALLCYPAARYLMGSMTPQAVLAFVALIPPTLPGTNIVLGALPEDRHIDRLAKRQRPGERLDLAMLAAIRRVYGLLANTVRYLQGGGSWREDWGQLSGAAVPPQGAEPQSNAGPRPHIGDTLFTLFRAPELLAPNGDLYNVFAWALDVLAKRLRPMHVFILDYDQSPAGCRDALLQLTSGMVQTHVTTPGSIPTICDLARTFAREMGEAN
Protocol: as §3

[5] = tested on: thymidine kinase extracted from human cells; test: Binding affinity with thymidine kinase extracted from human cells (Example 6)
Protocol: as §3

[6] = tested on: HSV-2; test: Viral inhibition, HSV-2 (Example 7, method of Example 5); type: cell-based, herpes simplex type 2; details: Human alphaherpesvirus 2
Protocol: as §1, §2

[7] = tested on: HSV-2 (333); test: Virus titer in HSV-2 infected HeLa cells, 24 hours post infection (Example 5); type: cell-based, herpes simplex type 2; details: control 1.2 × 10^7
Protocol: as §1

[8] = 50 micromolar, vs untreated control

How did the inhibition at 50 µM [1, 8] turn out when `CSc1cnc(=O)n([C@H]2C[C@H](O)[C@@H](CO)O2)c1` [methylmercapto compound, 1-(2-Deoxy-β-D-ribofuranosyl)-5-(methylmercapto)-2-pyrimidinone] was run?
Its inhibition at 50 µM is 41.1%.

And the inhibition at 100 µM ([1]; 100 micromolar)?
The inhibition at 100 µM was 83.8%.

What about the “binding affinity with thymidine kinase” value [2] of the same compound?
The value was “great binding affinity”.

And the “plaque-forming units/mL, HSV-1(Kos)” value ([3]; 100 μM)?
The value was 6.4 × 10^7 plaque-forming units/mL.

And the “plaque-forming units/mL, HSV-1(Kos)” value ([3]; 200 μM)?
Its value is 1.7 × 10^6 plaque-forming units/mL.

And the “plaque-forming units/mL, HSV-1(Kos)” value ([3]; 400 μM)?
Its value is 3.4 × 10^5 plaque-forming units/mL.

What about the “binding affinity with thymidine kinase” value [4] of the same compound?
Its value is “great binding affinity”.

And the “binding affinity with thymidine kinase” value [5]?
The value was “little binding affinity”.

And the inhibition at 50 µM [6, 8]?
The inhibition at 50 µM was 57.2%.

What about the inhibition at 100 µM ([6]; 100 micromolar) of the same compound?
The inhibition at 100 µM was 79.3%.

What about the “plaque-forming units/mL, HSV-2 (333)” value ([7]; 100 μM) of the same compound?
Its value is 1.3 × 10^7 plaque-forming units/mL.

And the “plaque-forming units/mL, HSV-2 (333)” value ([7]; 200 μM)?
The value was 3.1 × 10^6 plaque-forming units/mL.

What about the “plaque-forming units/mL, HSV-2 (333)” value ([7]; 400 μM) of the same compound?
The value was 3.2 × 10^5 plaque-forming units/mL.
